Source: US20110001093A1, “FULLERENE DERIVATIVE” (SUMITOMO CHEMICAL COMPANY LIMITED, priority 2007, published 2011)

test: Evaluation of solubility in xylene (visual observation); assay type: physicochemical; details: stirred by magnetic stirrer 10 minutes, visually observed

With `COCCOCCN1CC2C3=c4c5c6c7c(cc8cc9cc%10cc%11cc%12c%13c(c4c4c5c5c7c8c7c9c%10c8c%11c%13c4c8c75)=C(C3)C%12)CC62C1c1ccc(F)cc1` (stereo not shown) [Fullerene derivative C, N-methoxyethoxyethyl-2-(4-fluorophenyl) fulleropyrrolidine] as the compound, how does the “Solubility of a 1 wt % xylene solution” value read?
The value was “Dissolved”.

With `COCCOCCN1CC2C3=c4c5c6c7c(cc8cc9cc%10cc%11cc%12c%13c(c4c4c5c5c7c8c7c9c%10c8c%11c%13c4c8c75)=C(C3)C%12)CC62C1c1ccccc1` (stereo not shown) [Fullerene derivative E, N-methoxyethoxyethyl-2-phenyl-fulleropyrrolidine] as the compound, how does the “Solubility of a 1 wt % xylene solution” value read?
The value was “Dissolved”.

With `COCCOCCN1CC2C3=c4c5c6c7c(cc8cc9cc%10cc%11cc%12c%13c(c4c4c5c5c7c8c7c9c%10c8c%11c%13c4c8c75)=C(C3)C%12)CC62C1c1ccc(C(F)(F)F)cc1` (stereo not shown) [Fullerene derivative F] as the compound, how does the “Solubility of a 1 wt % xylene solution” value read?
Its value is “Dissolved”.

Which “Solubility of a 1 wt % xylene solution” value does the source give for `COCCOCCN1CC2C3=c4c5c6c7c(cc8cc9cc%10cc%11cc%12c%13c(c4c4c5c5c7c8c7c9c%10c8c%11c%13c4c8c75)=C(C3)C%12)CC62C1CCc1ccccc1` (stereo not shown) [Fullerene derivative G, N-methoxyethoxyethyl-2-(2-phenylethyl)fulleropyrrolidine] here?
The value was “Dissolved”.

For `COCCOCCN1CC2C3=c4c5c6c7c(cc8cc9cc%10cc%11cc%12c%13c(c4c4c5c5c7c8c7c9c%10c8c%11c%13c4c8c75)=C(C3)C%12)CC62C1c1c(F)c(F)c(F)c(F)c1F` (stereo not shown) [Fullerene derivative B, N-methoxyethoxyethyl-2-(perfluorophenyl)fulleropyrrolidine], which “Solubility of a 1 wt % xylene solution” value is on record?
Its value is “Dissolved”.

Which “Solubility of a 1 wt % xylene solution” value does the source give for `COCCOCCN1CC2C3=c4c5c6c7c(cc8cc9cc%10cc%11cc%12c%13c(c4c4c5c5c7c8c7c9c%10c8c%11c%13c4c8c75)=C(C3)C%12)CC62C1c1ccc(C)cc1` (stereo not shown) [Fullerene derivative D, N-methoxyethoxyethyl-2-(4-methylphenyl)fulleropyrrolidine] here?
Its value is “Dissolved”.

For `COCCOCCN1CC2C3=c4c5c6c7c(cc8cc9cc%10cc%11cc%12c%13c(c4c4c5c5c7c8c7c9c%10c8c%11c%13c4c8c75)=C(C3)C%12)CC62C1c1cccc2ccccc12` (stereo not shown) [Fullerene derivative A, N-methoxyethoxyethyl-2-(1-naphthyl)fulleropyrrolidine], which “Solubility of a 1 wt % xylene solution” value is on record?
Its value is “Dissolved”.
